Measurements from BindingDB's records for doi:10.1016/j.bmcl.2018.11.015 (Boehringer Ingelheim Pharmaceuticals, 2019).

experiment: Antagonist activity at CCR1 in human THP1 cells assessed as inhibition of chemotaxis after 30 mins by Celltiter-glo reagent based luminescence assay

IC50 [nM]	Structure (SMILES)
1.5	CC(C)[C@@H](NC(=O)NCC(C)(C)O)C(=O)N1CC[C@](O)(c2ccc(Cl)cc2)C(C)(C)C1
1200	Cc1c(C(=O)NCc2cccc(C(F)(F)F)c2)cnn1-c1ccc(Cl)c(Cl)c1
4	COc1cc(N2CCN(C(=O)Cn3nc(-c4ncc[nH]4)c4cccnc43)CC2)ccc1Cl

Structure (SMILES)	IC50 [nM]
CC(C)(O)c1ccc2c(c1)/C(=C\CCN1CC[C@](O)(c3ccc(Cl)cc3)C(C)(C)C1)c1cccnc1CO2	1.8
